Like-named read-outs stand apart in the source and are kept apart here.
How the values were obtained:
SiHa cells = experiment: IC50 assay (inhibition of proliferation, 4 h exposure, SRB); conditions: SiHa; for IC50: Homo sapiens, 4 h
Experimental: Cells were seeded in 96-well plates (SiHa or FaDu 1500 cells/well, UT-SCC-74B 800 cells/well) in 100 μL. After incubation for 2 h, the drugs were added in 50 μL of the same titrated medium at 3× the final concentration to duplicate the wells. After a further 4 h the plates were checked for drug precipitation using a phase contrast microscope, then drugs were removed by aspirating and washing with the standard (pH 7.4) medium, then aspirating again and adding 150 μL of the medium. Cultures were then grown for 5 days before staining with sulphorhodamine B and measuring absorbance, with the estimation of IC50 values using 4-parameter logistic regression, as previously carried out.
The medium and plasticware was equilibrated in the chamber for 3 days prior to use. In the anoxia experiments, FaDu cells were plated in poly-L-lysine coated plates (Corning Cat # 356461) to improve attachment.
Cells were subsequently grown under standard cell culture conditions (oxia, pHe 7.4) for 5 days before staining with sulforhodamine B (SRB). […] (B) SN30000 (2). (C) BTO acid 4a. Values are means and errors are ranges for duplicate cultures in a single experiment. Fitted curves are 4-parameter logistic regressions. PCR = pH cytotoxicity ratio. ACR = anoxia cytotoxicity ratio. TMR = tumor microenvironment ratio.

FaDu cells = experiment: as above; type: cell-based; conditions: for IC50: Homo sapiens, 4 h
[1] = Solubility in AlphaMEM + 5% FBS, pH 7.4; conditions: culture medium (AlphaMEM + 5% FBS), pH 7.4, plasma or biological fluid
[2] = read-out: Anoxic IC50, SiHa, pHe 6.5, 4 h, anoxic
[3] = read-out: Anoxic IC50, SiHa, pHe 7.4, 4 h, anoxic
[4] = read-out: Oxic IC50, SiHa, pHe 6.5, 4 h, oxic
[5] = read-out: Oxic IC50, SiHa, pHe 7.4, 4 h, oxic
[6] = pHe 6.5, 4 h, anoxic, read-out: Anoxic IC50
[7] = pHe 6.5, 4 h, oxic, read-out: Oxic IC50
[8] = pHe 7.4, 4 h, anoxic, read-out: Anoxic IC50
[9] = pHe 7.4, 4 h, oxic, read-out: Oxic IC50

solubility ([1]; kinetic from dmso stock) [µM] | melting point [°C] | SMILES | IC50 (SiHa cells; [2]) [µM] | IC50 (SiHa cells; [3]) [µM] | IC50 (SiHa cells; [4]) [µM] | IC50 (SiHa cells; [5]) [µM] | TMR (overall TME ratio = oxic IC50 pHe 7.4/anoxic IC50 pHe 6.5) (SiHa cells) | PCR Anoxic (IC50 at pHe 7.4/IC50 at pHe 6.5) (SiHa cells) | PCR oxic (IC50 at pHe 7.4/IC50 at pHe 6.5) (SiHa cells) | ACR (anoxic cytotoxicity ratio = oxic IC50/anoxic IC50) (SiHa cells; pHe 6.5) | ACR (anoxic cytotoxicity ratio = oxic IC50/anoxic IC50) (SiHa cells; pHe 7.4) | TMR (oxic IC50 pHe 7.4/anoxic IC50 pHe 6.5) (FaDu cells) | IC50 (FaDu cells; [6]) [µM] | IC50 (FaDu cells; [7]) [µM] | IC50 (FaDu cells; [8]) [µM] | IC50 (FaDu cells; [9]) [µM] | PCR Anoxic (IC50 at pHe 7.4/IC50 at pHe 6.5) (FaDu cells; anoxic) | PCR oxic (IC50 at pHe 7.4/IC50 at pHe 6.5) (FaDu cells; oxic) | ACR (oxic IC50/anoxic IC50) (FaDu cells; pHe 6.5) | ACR (oxic IC50/anoxic IC50) (FaDu cells; pHe 7.4) | further results
1400 | – | CCOC(=O)CCCNc1n[n+]([O-])c2ccccc2[n+]1[O-] [Compound 11b, 3-((4-Ethoxy-4-oxobutyl)amino)benzo[e][1,2,4]triazine 1,4-Dioxide] | 4.36 ± 0.56 | 3.55 ± 0.7 | 13.2 ± 0.9 | 14.5 ± 0.6 | 3.32 ± 0.45 | 0.81 ± 0.19 | 1.10 ± 0.09 | 3.04 ±0.44 | 4.08 ±0.82 | 10.1 ± 3.0 | 36.3 ± 4.8 | 274 ± 210 | 29 ± 2 | 368 ± 98 | 0.80 ± 0.12 | 1.34 ± 1.09 | 7.55 ± 5.87 | 12.7 ± 3.5 | –
> 950 | 165 to 167 | COC(=O)CCc1n[n+]([O-])c2cc(C)ccc2[n+]1[O-] [Compound 5b, 3-(3-Methoxy-3-oxopropyl)-7-methylbenzo[e][1,2,4]triazine 1,4-Dioxide] | – | – | – | – | – | – | – | – | – | – | – | – | – | – | – | – | – | – | –
> 900 | 166 to 168 | COC(=O)CCc1n[n+]([O-])c2ccc(C)cc2[n+]1[O-] [Compound 6b, 3-(3-Methoxy-3-oxopropyl)-6-methylbenzo[e][1,2,4]triazine 1,4-Dioxide] | – | – | – | – | – | – | – | – | – | – | – | – | – | – | – | – | – | – | –
– | – | CCOC(=O)CNc1n[n+]([O-])c2ccccc2[n+]1[O-] [Compound 8b, Ethyl [(1,4-Dioxido-1,2,4-benzotriazin-3-yl)amino]acetate] | 2.5 ± 0.87 | 1.2 ± 0.35 | 21.6 ± 5.7 | 35.3 ± 3.1 | 14.1 ± 5.1 | 0.48 ± 0.22 | 1.63 ± 0.45 | 8.6 ± 3.8 | 29.4 ± 8.9 | 11.2 ± 2.9 | 8.55 ± 1.92 | 76.1 ± 17.9 | 5.25 ± 1.18 | 102 ± 9 | 0.61 ± 0.02 | 1.34 ± 0.33 | 8.89 ± 2.89 | 19.3 ± 4.7 | solubility ([1]; thermodynamic from solid): 8600 µM
– | – | COC(=O)CCNc1n[n+]([O-])c2cc3c(cc2[n+]1[O-])CCC3 [Compound 10b, 3-((3-Methoxy-3-oxopropyl)amino)-7,8-dihydro-6H-indeno[5,6-e][1,2,4]triazine 1,4-Dioxide] | 21 ± 4.2 | 20.4 ± 4.8 | 208 ± 26 | 249 ± 50 | 11.9 ± 3.4 | 0.97 ± 0.30 | 1.20 ± 0.28 | 9.90 ±2.34 | 12.2 ± 3.8 | 7.31 ± 1.08 | 40 ± 5.8 | 262 ± 29 | 43.7 ± 12.1 | 292 ± 8 | 1.09 ± 0.34 | 1.11 ± 0.13 | 6.56 ± 1.19 | 6.69 ± 1.86 | solubility ([1]; thermodynamic from solid): 350 µM

Reference: paper PMC6680510, “Benzotriazine Di-Oxide Prodrugs for Exploiting Hypoxia and Low Extracellular pH in Tumors” (Molecules, 2019)
